Here are results for 4 compounds from US20120015925A1, “NOVEL BENZOTHIAZEPINE AND BENZOTHIEPINE COMPOUNDS” (ASAHI KASEI PHARMA CORPORATION, priority 2004, published 2012).

The test system of experiment [1] is rats fed cholesterol food. The experiment in a line: Blood cholesterol lowering effect in rats fed cholesterol food. Format: in vivo, rat. Conditions: 0.3 mg/kg per administration, oral, twice per day; SD (IGS) male rats; serum 3 hours after final administration. The method, then:
In the present Test Example, a blood cholesterol lowering effect on rats fed cholesterol food was evaluated according to the method described in J. Lipid Res., 1995, 36, 1098-1105.
That is, the food containing 0.4% cholesterol and 0.5% bile acid was given to SD (IGS) strain male rats at 7 to 9 weeks of age for 5 days in advance of the test date, to increase blood cholesterol levels. The rats in which the blood cholesterol level had been obviously elevated from the level before loading the cholesterol food were selected as the subjects in the test. Colestimide (brand name: Cholebine 70% granules, supplied from Mitsubishi Tokyo Pharmaceutical Inc.) which is an anion exchange resin drug was suspended in distilled water, and the test compound was dissolved or suspended in distilled water. They were orally administered forcibly twice per day everyday from the starting date (each n=8). The blood was collected from jugular vein 3 hours after the drug administration on the final day of the experiment, and the cholesterol level in serum was measured to examine the effect of the test compound. As a control, another group (n=8) was merely fed cholesterol food, to which distilled water (1 mL/kg) was administered and the same procedure was applied. The total cholesterol value and the HDL cholesterol value were measured using commercially available kits. The value obtained by subtracting the HDL cholesterol value from the total cholesterol value was regarded as an LDL+VLDL cholesterol value.

In experiment [2] the test system is rats with partial ligation of the bile duct dosed bile acid. The experiment in a line: Model for hepatic disorder associated with cholestasis (partial bile duct ligation model), Protocol A: AST, ALT, ALP. Format: in vivo, rat. To be noted: 1 mg/kg in 1% HCO 60, N=3, mean±standard error. An excerpt:
In the present Test Example, a model for the hepatic disorder caused by partial ligation of the bile duct was employed with reference to Kanno's method (Liver, 43, Suppl(1):A126, 2002).
That is, to the SD (IGS) strain male rats at 7 to 10 weeks of age, the partial ligation of the bile duct was given with opening the abdominal cavity under anesthesia with pentobarbital. Before the operation, the blood was collected from femoral vein, in order to obtain the value before the administration. From the day after the operation, 200 mg/kg of bile acid and the test compound were orally administered forcibly twice per day for 3.5 days (Protocol A). Without giving the partial ligation of the bile duct, 200 mg/kg of bile acid and the test compound were also orally administered forcibly twice per day for 3.5 days (Protocol B). In both cases, the test compound was dissolved or suspended in distilled water or an aqueous solution of 1% HCO 60 (Nippon Chemicals). To the control group, saline was administered. As comparative examples, 25 mg/kg of cholestyramine (supplied from Sigma) or 50 mg/kg of ursodeoxycholic acid (supplied from Mitsubishi Pharma) was administered. For considering the effect of the operation, sham operation (sham group) was performed in some cases. The blood was collected from the abdominal aorta 6 hours after the drug administration on the final day of the experiment. AST (GOT), ALT (GPT) and ALP in the blood were measured using measurement kits (GOT II-HA Test Wako, GPT II-HA Test Wako and Alkaline Phosphor HA Test Wako, all were supplied from Wako Pure Chemical Industries) and using an automatic analyzer (Nitech ANALAYZER SUPER Z818).

Where [3] appears, read: Table 12-1, Protocol A, control group 417 ± 185, sham 43 ± 1.
[4] abbreviates: Table 12-1, Protocol A, control group 589 ± 221, sham 141 ± 26.
[5] abbreviates: Table 12-1, Protocol A, control group 2318 ± 583, sham 665 ± 94.
The mark [6] stands for this setting: Table 12-2, control group 384 ± 156, sham 48 ± 5.
Where [7] appears, read: Table 12-2, control group 643 ± 125, sham 128 ± 18.
Where [8] appears, read: Table 12-2, control group 2204 ± 327, sham 630 ± 87.

`C#CC[N+](C)(Cc1ccccc1)Cc1ccc(NC(=S)Nc2cccc(C3NC(CCCC)(CCCC)CS(=O)(=O)c4ccc(N(C)C)cc43)c2)cc1.[Br-]` (racemic) [EXAMPLE 3448]: the “LDL + VLDL REDUCTION RATE (%) IN CHOLESTEROL FED RAT MODEL (THERAPEUTIC MODEL)” value in experiment [1] amounted to 20%. This compound showed an ALT in experiment [2] (setting [3]) of 181 ± 79 IU/L. The compound further yielded an AST in experiment [2] (setting [4]) of 352 ± 210 IU/L. Moreover, the ALP in experiment [2] (setting [5]) worked out at 1148 ± 332 IU/L.

Regarding `CCCCC1(CCCC)CS(=O)(=O)c2ccc(N(C)C)cc2C(c2cccc(NC(=S)Nc3ccc(C[N+](C)(C)Cc4ccccc4)cc3)c2)N1.[Br-]` (stereo not shown) [EXAMPLE 3440], the “LDL + VLDL REDUCTION RATE (%) IN CHOLESTEROL FED RAT MODEL (THERAPEUTIC MODEL)” value in experiment [1] was determined as 36%. The same compound had an ALT in experiment [2] (setting [3]) of 155 ± 38 IU/L. The compound further had an AST in experiment [2] (setting [4]) of 309 ± 37 IU/L. In addition, the ALP in experiment [2] (setting [5]) is 1614 ± 189 IU/L.

Take `CCCCC1(CCCC)CS(=O)(=O)c2ccc(N(C)C)cc2C(c2cccc(NC(=S)Nc3ccc(C[n+]4cccc(CCC(=O)OC)c4)cc3)c2)N1.[Br-]` (stereo not shown) [EXAMPLE 3752]: the “LDL + VLDL REDUCTION RATE (%) IN CHOLESTEROL FED RAT MODEL (THERAPEUTIC MODEL)” value in experiment [1] is recorded as 50%. In experiment [2] (setting [6]), this compound came in with an ALT of 165 ± 47 IU/L. Also, the AST in experiment [2] (setting [7]) is on record as 358 ± 87 IU/L. Moreover, in experiment [2] (setting [8]), the ALP was 1112 ± 184 IU/L.

In the case of `CCCCC1(CCCC)CS(=O)(=O)c2ccc(N(C)C)cc2C(c2cccc(NC(=S)Nc3ccc(C[n+]4cccc(CCCO)c4)cc3)c2)N1.[Br-]` (stereo not shown) [EXAMPLE 3747], in experiment [1], the “LDL + VLDL REDUCTION RATE (%) IN CHOLESTEROL FED RAT MODEL (THERAPEUTIC MODEL)” value was 48%. The compound also returned an ALT in experiment [2] (setting [6]) of 146 ± 70 IU/L. The AST in experiment [2] (setting [7]) turned out to be 245 ± 81 IU/L. Also, in experiment [2] (setting [8]), the ALP is reported as 960 ± 259 IU/L.
